This is an account of results in ChEMBL document CHEMBL1641403, “Scytonemides A and B, cyclic peptides with 20S proteasome inhibitory activity from the cultured cyanobacterium Scytonema hofmanii” (J Nat Prod, 2010).

A short description of data set [1]: Inhibition of human 20S proteasome.
The nature of data set [2]: Metabolic stability of the compound in human HT-29 cells. It is filed as ADME, cell-based. The note with it: read-out: Stability (converted).
For data set [3], the system named is HT-29. As to the kind of experiment: Inhibition of 20S proteasome in human HT-29 cells. The data set is classed as cell-based.
In data set [4] the test system is HT-29. As to the kind of experiment: Cytotoxicity against human HT-29 cells. The data set is classed as cell-based.
Data set [5] in a line: Chemical stability of the compound. It is filed as physicochemical.
Data set [6] deals with HT-29. Kind of data set: Inhibition of 20S proteasome in human HT-29 cells at 6.7 uM by luminescence-based assay. It is filed as cell-based.

One may read the IC50 as the midpoint of a concentration-inhibition curve. `CCCCC[C@H]1CC(=O)N[C@@H](CO)C(=O)N[C@@H](Cc2ccccc2)C(=O)N[C@@H](Cc2ccc(O)cc2)C(=O)N[C@H](CCCNC(N)=O)C(=O)N[C@@H](CC(=O)O)C(=O)O1` [scytonemides B] yielded a concentration for half-maximal inhibition (IC50) in data set [1] greater than 50 µM.

In general, inhibition refers to the drop in the measured response relative to a control, in per cent. Turning to `CC[C@H](C)[C@H]1NC(=O)[C@@H](CCC(N)=O)NC(=O)CNC(=O)[C@H](Cc2ccc(O)cc2)/N=C/[C@H](CC(C)C)NC(=O)[C@H](C(C)C)NC(=O)[C@H](CO)NC1=O` [SCYTONEMIDES A], the half-life in data set [2] is 120 min. Also, in the data set with HT-29 [3], the ED50 was greater than 20 µg/mL. In addition, the Activity result in the data set on HT-29 [4] is given as “Non-toxic”. The molecule further registered a Stability in data set [5] of 3 days. Besides, the inhibition with HT-29 [6] stood at 80%.
